Results from patent US10385085B2, “Crystal forms of sialic acid or salt or solvate thereof” (Ultragenyx Pharmaceutical Inc., priority 2015, dated 2019).
Values after ≈ are worked out from the molar mass of the structure shown. Values joined by “and” are separate entries in the source; they are usually repeats but may differ in a detail not shown here. Equal values may be shown once. Read-outs that look alike come from different tables or passages of the source.

Key:
Type in all cases: physicochemical
[1] = Desolvation / dehydration on heating, form checked by XRPD
Procedure: A weight loss of 33.1% is observed, prior to decomposition, which coincides with an onset in the DTA profile at ca. 108.8° C. (onset of the endotherm). The second endothermic event corresponds with decomposition at ca. 186.3° C. (onset of the endotherm). The 33.1% of loss of weight corresponds to 1.96 molecules of DMSO for 1 molecule of sialic acid. It is thus very likely that Form 4 is a stoichiometric bis-solvate (2:1). The ^1H NMR spectrum is consistent with sialic acid. The only noticeable difference between the spectra of Form 1 and Form 4 is the relative size of the resonance at ca. 2.5 ppm. This is due to DMSO, which further supports that Form 4 is a DMSO solvate.
Referring to PLM images (FIG. 20), the habit of Form 5 is block-like with a length around 100 μm. Strong birefringence is observed. […] Further weight losses are present, which may be due to decomposition. The loss of weight of 10.5% correlates very well with the KF Titration (10.34%). It is very likely Form 5 is a dihydrate (expected loss of weight for a dihydrate is 10.44%). […] This possibly indicates the formation of a new anhydrous form by desolvation of Form 5 (onset seen for Form 1 is ca. 188.9° C.). The difference between the TG/DTA and the DSC traces is likely to be due to the difference in pan (open pan for TG/DTA and pierced closed pan for DSC). […]

[2] = Approximate aqueous solubility of the solid forms (solvent addition method); details: for solubility: water, thermodynamic from solid
Procedure: (§1) The selected Forms (5, 3 and 2) were fully characterized by PLM, XRPD, ^1H NMR and IR spectroscopy, DSC, TG/DTA, GVS (with post-GVS XRPD), Karl Fischer titration for water content and HPLC analysis for purity. All of these forms with the addition of Form 1 were also placed under a stress-stability test, at three different conditions for one week (ambient conditions, 40° C. and 75% relative humidity, 80° C.). In addition to this, an approximate solubility test was conducted on the different solid forms using a solvent addition method.
Approximately 50 mg of each form (1, 2, 3 and 5) was weighed into a 2 ml vial. 20 μl aliquots of deionized water was added to each vial until complete dissolution of the solid was observed. The volume was noted down and the approximate water solubility calculated.

[3] = 7 day stress stability, chemical stability by HPLC; details: for Sialic acid Area % (HPLC): two injections
Procedure: The chemical purity was measured on an Agilent HP1100 HPLC system fitted with an Agilent variable wavelength UV detector. Samples were prepared by dissolving in diluent at a concentration of 1 mg/mL before being analysed under the following HPLC conditions:
as §1
(§2) All four Forms (1, 2, 3 and 5) were placed under 7 day stress stability testing. This was carried out by placing the four forms under three different conditions for one week. Their physical stability was then analyzed by comparing the diffractograms and the chemical stability was checked by HPLC.

[4] = 7 day stress stability, physical form by XRPD
Procedure: XRPD analysis was carried out on a Panalytical X′pert Pro, scanning the samples between 3 and 35° […]. The material was gently ground and loaded onto a multi well plate with Kapton or mylar polymer film to support the sample. The multi well plate was then loaded into a Panalytical diffractometer running in transmission mode and analysed, using the following experimental conditions.
as §1, §2

[5] = Gravimetric Vapour Sorption (GVS) with post-GVS XRPD; details: for GVS mass difference: between 0-90% relative humidity; for Polymorphic form after GVS (XRPD): material reclaimed after GVS run
Procedure: Approximately 10-20 mg of sample was placed into a mesh vapour sorption balance pan and loaded into an IGASorp Moisture Sorption Analyser balance by Hiden Analytical. The sample was subjected to a ramping profile from 40-90% relative humidity (RH) at 10% increments, maintaining the sample at each step until a stable weight had been achieved (98% step completion). After completion of the sorption cycle, the sample was dried using the same procedure to 0% RH, and finally taken back to the starting point of 40% RH. The weight change during the sorption/desorption cycles were plotted, allowing for the hygroscopic nature of the sample to be determined.

HPLC-UV chemical purity = details: for HPLC (purity): summary Table 13
Procedure: The chemical purity was measured on an Agilent HP1100 HPLC system fitted with an Agilent variable wavelength UV detector. Samples were prepared by dissolving in diluent at a concentration of 1 mg/mL before being analysed under the following HPLC conditions: […]

[6] = Thermogravimetric/Differential Thermal Analysis (TG/DTA)
Procedure: Approximately, 10 mg of material was weighed into an open aluminium pan and loaded into a simultaneous thermogravimetric/differential thermal analyser (TG/DTA) and held at room temperature. The sample was then heated at a rate of 10° C./min from 25° C. to 300° C. during which time the change in sample weight was recorded along with any differential thermal events (DTA). Nitrogen was used as the purge gas, at a flow rate of 300 cm^3/min.

[7] = PLM (morphology) of the solid forms; details: for PLM (morphology): particle shape
[8] = Competitive slurry experiments (polymorph stability)
Procedure: Competitive slurry experiments were conducted between Forms 1 and 3 and between Forms 1 and 2. A mixture of the two forms (25 mg per form) being investigated was slurried in 1 mL of solvent for one day at 20° C. or 60° C. in five different solvents (acetone, acetic acid, ethanol, ethyl acetate and ethynol).
Competitive slurries were performed to compare the relative stability between two forms at a given temperature in a given solvent.

[9] = Slurries of Form 1 at 5° C. followed by XRPD over time
Procedure: Due to the discolouration of samples during slurry experiments in water and water/acetic acid mixtures, slurries of sialic acid (Form 1) were made at 5° C. in water, water/acetic acid (80/20 v/v) mixture, ethyl acetate and acetic acid and stirred for […]. Diffractograms of the slurried solids were recorded after 10 minutes, 4 hours, 20 hours and 28 hours. Form 5 was obtained in slurries containing water at all time points. Form 1 was obtained for acetic acid and ethyl acetate for all time points.

[10] = Differential Scanning Calorimetry (DSC)
Procedure: Approximately, 5 mg of material was weighed into an aluminium DSC pan and sealed non-hermetically with a pierced aluminium lid. The sample pan was then loaded into a Seiko DSC6200 (equipped with a cooler) cooled and held at 25° C. Once a stable heat-flow response was obtained, the sample and reference were heated to 210° C. at a scan rate of 10° C./min and the resulting heat flow response monitored. Nitrogen was used as the purge gas, at a flow rate of 50 cm^3/min.

[11] = after 1 week under 40° C., 75% RH
[12] = after 1 week under ambient conditions
[13] = acetone, ethanol, ethyl acetate, ethynol, 20° C. or 60° C.

Structure (SMILES): CC(=O)N[C@H]1[C@H]([C@H](O)[C@H](O)CO)OC(O)(C(=O)O)C[C@@H]1O (stereo partly drawn) [Form 4, N-acetylneuraminic acid]
- Form after desolvation (XRPD) ([1]; 15 min at 100° C. under vacuum): converted to Form 1

Structure (SMILES): CC(=O)N[C@H]1[C@H]([C@H](O)[C@H](O)CO)OC(O)(C(=O)O)C[C@@H]1O (stereo partly drawn) [Form 5, N-acetylneuraminic acid]
- Approximate solubility ([2]; aqueous): 96.6 mg/mL
- Aqueous Solubility, Solubility in g/L ([2]; deionized water, approximate, solvent addition): 96.6 g/L
- HPLC (purity) ([3]; after 1 week at 80° C.): 96.8%
- Sialic acid Area % (HPLC) [3, 11]: 99.899% and 99.919%
- Sodium Pyruvate Area % (HPLC) ([3]; after 1 week under 80° C.): 0.559%
- HPLC (purity) ([3]; after 1 week, both ambient and 40° C./75% RH samples): higher than 99.9%
- Area % Acetic acid (HPLC) ([3]; stability under 80° C.): 0.000%
- Area % N-acetyl-D-glucosamine (HPLC) ([3]; stability under 80° C.): 0.000%
- Area % N-acetyl-D-mannosamine (HPLC) ([3]; stability under 80° C.): 0.000%
- Physical form (XRPD) after stress ([4]; 1 week at 40° C./75% RH): stable
- Physical form (XRPD) after stress ([4]; 1 week at 80° C.): converts to an unknown form
- Physical form (XRPD) after stress ([4]; 1 week under ambient conditions): stable
- Stability - XRPD post Stability ([4]; at 80° C.): New form 80 °C
- Stability - XRPD post Stability ([4]; at RT): Form 5 at RT
- Hygroscopicity (GVS) [5]: very slightly hygroscopic
- Stability when exposed to different humidity levels [5]: stable
- XRPD post DVS [5]: no change
- GVS mass difference [5]: 1.45%
- Polymorphic form after GVS (XRPD) [5]: same polymorphic form (Form 5)
- Form after dehydration (XRPD) ([1]; held at 90° C. for 35 min in TG/DTA apparatus): unknown form
- Area % Sodium Pyruvate (HPLC) (HPLC-UV chemical purity; no stress condition stated): 0.000%
- HPLC (purity) (HPLC-UV chemical purity): 99.80% and 99.90%
- TGA (weight loss) [6]: 10.5%
- TGA temperature of the weight loss [6]: (88.4° C.)
- PLM (morphology), particle size [7]: < 100 μm
- PLM (morphology) [7]: Blocks

Structure (SMILES): CC(=O)N[C@H]1[C@H]([C@H](O)[C@H](O)CO)OC(O)(C(=O)O)C[C@@H]1O (stereo partly drawn) [Form 1, N-acetylneuraminic acid]
- solubility ([2]; deionized water, aqueous, read-out: Approximate solubility): 98.5 g/L (≈ 318 mM)
- solubility ([2]; deionized water, deionized water, approximate, solvent addition, read-out: Aqueous Solubility, Solubility in g/L): 98.5 g/L (≈ 318 mM)
- Chemical stability ([3]; 1 week stress test, conditions studied): stable
- N-acetyl-D-glucosamine Area % (HPLC) [3, 11]: 0.079% and 0.081%
- Sialic acid Area % (HPLC) [3, 11]: 99.580% and 99.590%
- N-acetyl-D-glucosamine Area % (HPLC) ([3]; after 1 week under 80° C.): 0.062%
- N-acetyl-D-glucosamide known impurity [3, 12]: 0.076%
- Sialic acid Area % (HPLC) [3, 12]: 99.705% and 99.711%
- HPLC purity of recovered samples ([3]; after 1 week, all three conditions (ambient; 40° C./75% RH; 80° C.)): higher than 99.5%
- Stability as a physical form (XRPD) ([4]; 1 week stress test, overall): stable
- Stability - XRPD post Stability ([4]; no single condition stated): no change
- Hygroscopicity (GVS) [5]: very slightly hygroscopic
- Stability when exposed to different humidity levels [5]: stable
- XRPD post DVS [5]: no change
- GVS mass difference [5]: 1.4%
- Polymorphic form after GVS (XRPD) [5]: same polymorphic form (Form 1)
- Form recovered from competitive slurry between Forms 1 and 2 ([8]; acetic acid): mixture of Forms 1 and 3
- Form recovered from competitive slurry between Forms 1 and 3 ([8]; acetic acid): mixture of Form 1 and 3
- Form recovered from competitive slurry between Forms 1 and 2 [8, 13]: Form 1 is recovered
- Form recovered from competitive slurry between Forms 1 and 3 [8, 13]: Form 1 is recovered
- Relative stability, competitive slurries between Forms 1 and 2 ([8]; all studied conditions): more stable than Form 2
- Relative stability, competitive slurries between Forms 1 and 3 ([8]; all studied conditions except in acetic acid): more stable than Form 3
- Overall relative stability of the form ([8]; competitive slurries, most of the studied conditions): thermodynamically most stable form
- Form obtained from slurry (XRPD) ([9]; acetic acid, all time points): Form 1
- Form obtained from slurry (XRPD) ([9]; ethyl acetate, all time points): Form 1
- Time to full conversion to Form 5 in slurry ([9]; water and water/acetic acid (80:20 v/v)): ≤ 10 min
- Form obtained from slurry (XRPD) ([9]; water, all time points (10 minutes to 28 hours)): Form 5
- Form obtained from slurry (XRPD) ([9]; water/acetic acid (80/20 v/v), all time points): Form 5
- HPLC (purity) (HPLC-UV chemical purity): 99.5%
- TGA Decomposition temperature [6]: at 190.2 °C
- DSC (thermal events) Endotherm [10]: 188.6° ° C.
- PLM (morphology), particle size [7]: <10 μm
- PLM (morphology) [7]: Small needles
